Here are results for 17 compounds from ChEMBL document CHEMBL1201862, “PubChem BioAssay data set” (2004).

Each structure is given as a SMILES string. The source made the active and inactive calls. Some results are limits rather than exact numbers.

Usually IC50 stands for the midpoint of a concentration-inhibition curve. In general, CC50 refers to the concentration giving 50% cytotoxicity. A word on the AC50: it is the concentration at which the activity in the assay is half-maximal. What is called EC50 is the concentration that produces a half-maximal response.

Assay [1] can be described thus: cells.
Assay [2] can be described thus: viability of uninfected HEp-2 cells – cell-based, HTS, cytotoxicity control for RSV inhibitor project, dose response (AID 2410). Type of assay: functional. Conditions: human respiratory syncytial virus.
A short description of assay [3]: intracellular Trypanosoma cruzi inhibitors in host cells – cell-based, plate reader, cherry-pick samples, set 3, dose response (AID 651818).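 Note: compounds incubated with infected cells for about four days.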 Type of assay: functional.
Assay [4] addresses Estrogen receptor beta (Homo sapiens, UniProt Q92731).
The target in assay [5] is Large T antigen (Simian virus 40, UniProt P03070). Type of assay: functional, Betapolyomavirus macacae.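 Note: Confirmatory-stage PubChem screen for compounds that inhibit SV40 T antigen.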
Sequence of Large T antigen (P03070 whole entry): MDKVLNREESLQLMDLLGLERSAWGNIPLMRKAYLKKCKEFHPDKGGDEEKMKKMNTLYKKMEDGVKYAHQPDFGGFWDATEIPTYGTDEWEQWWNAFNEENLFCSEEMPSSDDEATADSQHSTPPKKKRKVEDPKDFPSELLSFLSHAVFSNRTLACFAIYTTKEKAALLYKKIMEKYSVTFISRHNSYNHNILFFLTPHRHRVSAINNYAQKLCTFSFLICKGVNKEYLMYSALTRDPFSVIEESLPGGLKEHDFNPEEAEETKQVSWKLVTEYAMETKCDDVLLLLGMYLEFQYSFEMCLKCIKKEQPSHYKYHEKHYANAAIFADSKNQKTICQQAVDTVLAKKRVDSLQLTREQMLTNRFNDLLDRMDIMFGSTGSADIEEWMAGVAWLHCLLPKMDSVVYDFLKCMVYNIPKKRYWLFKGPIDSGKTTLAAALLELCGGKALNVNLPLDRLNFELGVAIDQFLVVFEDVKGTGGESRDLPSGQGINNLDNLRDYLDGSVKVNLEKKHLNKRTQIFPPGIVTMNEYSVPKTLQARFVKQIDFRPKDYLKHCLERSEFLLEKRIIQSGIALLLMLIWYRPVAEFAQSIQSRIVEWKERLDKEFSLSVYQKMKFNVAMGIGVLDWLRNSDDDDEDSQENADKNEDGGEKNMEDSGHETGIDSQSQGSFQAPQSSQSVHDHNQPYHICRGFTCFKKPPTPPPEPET
Assay [6] deals with T1, Histone-lysine N-methyltransferase NSD2 (Homo sapiens, UniProt O96028).
T1 sequence (O96028 whole entry): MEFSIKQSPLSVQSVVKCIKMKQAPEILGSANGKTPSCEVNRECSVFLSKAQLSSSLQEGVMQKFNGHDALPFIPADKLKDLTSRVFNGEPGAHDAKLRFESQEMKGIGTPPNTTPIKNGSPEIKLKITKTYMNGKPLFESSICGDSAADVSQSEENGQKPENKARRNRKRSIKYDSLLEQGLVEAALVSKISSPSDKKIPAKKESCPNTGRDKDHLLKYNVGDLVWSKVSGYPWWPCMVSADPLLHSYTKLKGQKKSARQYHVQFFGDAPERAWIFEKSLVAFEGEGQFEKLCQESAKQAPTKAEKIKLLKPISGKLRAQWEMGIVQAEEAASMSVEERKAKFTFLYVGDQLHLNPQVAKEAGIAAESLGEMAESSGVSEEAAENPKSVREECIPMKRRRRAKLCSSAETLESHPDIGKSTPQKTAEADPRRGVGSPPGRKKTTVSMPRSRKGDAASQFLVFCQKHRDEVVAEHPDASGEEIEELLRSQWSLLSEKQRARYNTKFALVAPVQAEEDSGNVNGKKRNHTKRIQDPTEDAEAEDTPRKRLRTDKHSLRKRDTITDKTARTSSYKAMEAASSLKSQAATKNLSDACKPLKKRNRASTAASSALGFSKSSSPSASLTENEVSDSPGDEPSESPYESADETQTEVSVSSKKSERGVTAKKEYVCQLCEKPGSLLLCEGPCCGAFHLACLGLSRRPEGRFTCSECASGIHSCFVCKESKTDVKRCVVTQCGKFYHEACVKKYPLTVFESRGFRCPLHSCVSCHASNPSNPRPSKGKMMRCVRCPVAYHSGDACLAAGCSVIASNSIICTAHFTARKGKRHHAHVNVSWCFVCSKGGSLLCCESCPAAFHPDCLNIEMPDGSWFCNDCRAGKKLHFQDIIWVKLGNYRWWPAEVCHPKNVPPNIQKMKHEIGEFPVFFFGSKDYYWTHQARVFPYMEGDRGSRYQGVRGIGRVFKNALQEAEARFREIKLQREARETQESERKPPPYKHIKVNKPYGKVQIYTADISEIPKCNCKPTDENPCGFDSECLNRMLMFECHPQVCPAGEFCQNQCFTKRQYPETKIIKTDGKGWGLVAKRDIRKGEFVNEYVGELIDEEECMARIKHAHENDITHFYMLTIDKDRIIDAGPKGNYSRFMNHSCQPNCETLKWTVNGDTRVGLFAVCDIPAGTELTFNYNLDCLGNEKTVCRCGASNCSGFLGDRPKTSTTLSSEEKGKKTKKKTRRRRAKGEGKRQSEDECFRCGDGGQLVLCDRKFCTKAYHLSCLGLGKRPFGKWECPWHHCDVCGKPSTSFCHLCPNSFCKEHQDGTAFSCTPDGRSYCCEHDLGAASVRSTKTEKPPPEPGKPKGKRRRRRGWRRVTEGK
Type of assay: biochemical.

For assay [7], the system named is H9c2. Kind of assay: cells. The following applies: Rattus norvegicus, H9c2, Myocardium. In kind it is functional, cell-based.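 Note: confirmatory concentration-response retest of ultra-high-throughput screening hits for modulation of myocardial damage; cell death induced by hydrogen peroxide oxidative stress; compound pretreatment for 60 min then peroxide exposure for 2 h; potency is for protecting the cells against peroxide damage rather than for killing them.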
Assay [8] has as its target Cytochrome P450 2C9 (Homo sapiens, UniProt P11712).
In assay [9] the target is T2, Cytochrome P450 1A2 (Homo sapiens, UniProt P05177).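 Note: PubChem cytochrome P450 panel assay, CYP1A2 panel member.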
T2 sequence (P05177 whole entry): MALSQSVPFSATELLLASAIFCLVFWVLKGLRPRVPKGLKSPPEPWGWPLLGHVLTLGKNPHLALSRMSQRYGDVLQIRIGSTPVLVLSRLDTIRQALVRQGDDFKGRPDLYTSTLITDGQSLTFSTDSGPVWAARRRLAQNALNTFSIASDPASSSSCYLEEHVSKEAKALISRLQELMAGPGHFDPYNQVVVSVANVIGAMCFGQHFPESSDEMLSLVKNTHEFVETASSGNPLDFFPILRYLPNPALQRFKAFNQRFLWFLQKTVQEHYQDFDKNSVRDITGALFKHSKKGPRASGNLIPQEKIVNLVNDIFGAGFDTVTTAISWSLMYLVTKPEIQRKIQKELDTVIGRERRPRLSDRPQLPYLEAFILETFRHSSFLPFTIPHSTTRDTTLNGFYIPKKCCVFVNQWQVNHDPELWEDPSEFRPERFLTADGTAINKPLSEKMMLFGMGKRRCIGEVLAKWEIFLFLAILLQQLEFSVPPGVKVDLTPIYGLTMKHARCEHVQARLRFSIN

The target in assay [10] is Cytochrome P450 3A4 (Homo sapiens, UniProt P08684).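 Note: CYP3A4 tested as one member of a cytochrome P450 panel screen.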
Sequence of Cytochrome P450 3A4 (P08684 whole entry): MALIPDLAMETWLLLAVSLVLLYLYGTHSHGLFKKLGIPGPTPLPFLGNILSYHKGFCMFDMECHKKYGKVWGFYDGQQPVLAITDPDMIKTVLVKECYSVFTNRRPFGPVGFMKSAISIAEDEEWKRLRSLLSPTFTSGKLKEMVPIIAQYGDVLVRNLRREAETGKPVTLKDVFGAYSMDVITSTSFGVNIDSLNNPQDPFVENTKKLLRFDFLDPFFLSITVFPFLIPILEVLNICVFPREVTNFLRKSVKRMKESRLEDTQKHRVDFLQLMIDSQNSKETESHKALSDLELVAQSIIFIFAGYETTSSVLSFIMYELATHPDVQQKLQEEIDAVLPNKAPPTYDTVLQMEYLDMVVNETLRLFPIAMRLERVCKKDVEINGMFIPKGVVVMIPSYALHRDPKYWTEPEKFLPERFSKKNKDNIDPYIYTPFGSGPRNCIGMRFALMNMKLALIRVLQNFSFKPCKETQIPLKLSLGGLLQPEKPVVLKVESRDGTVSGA
Assay [11] deals with Vero. Kind of assay: cells. In kind it is functional, cell-based. Conditions: Chlorocebus sabaeus.
For assay [12], the system named is Vero. Kind of assay: cells. Type of assay: functional. The following applies: Chlorocebus sabaeus.
In assay [13] the target is T3, Heat shock factor protein 1 (Mus musculus, UniProt P38532).
T3 sequence (P38532 whole entry): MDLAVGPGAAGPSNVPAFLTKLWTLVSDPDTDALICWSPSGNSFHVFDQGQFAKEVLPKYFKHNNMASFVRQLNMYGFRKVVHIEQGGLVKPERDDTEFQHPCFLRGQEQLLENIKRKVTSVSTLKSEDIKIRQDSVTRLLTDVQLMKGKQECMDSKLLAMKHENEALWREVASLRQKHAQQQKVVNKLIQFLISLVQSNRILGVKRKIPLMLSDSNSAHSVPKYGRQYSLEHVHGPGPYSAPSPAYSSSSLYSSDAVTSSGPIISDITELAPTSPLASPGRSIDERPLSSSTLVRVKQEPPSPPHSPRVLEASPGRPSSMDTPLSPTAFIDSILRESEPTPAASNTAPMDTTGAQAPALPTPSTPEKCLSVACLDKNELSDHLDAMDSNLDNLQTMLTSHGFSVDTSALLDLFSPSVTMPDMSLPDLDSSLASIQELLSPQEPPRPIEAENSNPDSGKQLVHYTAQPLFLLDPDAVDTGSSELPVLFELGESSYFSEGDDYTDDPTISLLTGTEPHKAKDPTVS
Kind of assay: enhancement of HSF1-driven luciferase signal – cell-based, NIH3T3, luminescence, dose retest, confirmation (AID 435004).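 Note: stress induced by proteasome inhibitor MG132 added 30 min after compound; luciferase reporter driven by HSF1 response element in NIH3T3 cells; actives raise luminescence as potentiators of the MG132 stress response.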 In kind it is functional.

Assay [14] has as its system HEK293. Nature of the assay: EBV LMP1 TES2 canonical NF-kB signalling blockers – cell-based, HEK293, luciferase, cherry-pick, dose response (AID 588343). Type of assay: functional. The following applies: Homo sapiens.
A short description of assay [15]: reduction of Shn3 3'UTR-driven luciferase in osteoblasts – cell-based, Clone20 osteoblasts, firefly luciferase, cherry-picked, dose response (AID 624132).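 Note: firefly luciferase luminescence from reporter carrying the Shn3 3'UTR in osteoblasts.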 Type of assay: functional.
Assay [16] in a line: non-specific 3'UTR reporter inhibition in Clone20-Shn3RL – cell-based, Renilla luciferase, cherry-picked, counter-screen for Shn3 inhibitor project, dose response (AID 624133). In kind it is functional.
Assay [17] concerns the target Paired box protein Pax-8 (Homo sapiens, UniProt Q06710). Nature of the assay: PAX8 transcriptional activity inhibition in RMG-I – RMG-I cells, luciferase, cherry-pick, dose response (AID 687027).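 Note: luciferase reporter driven by Pax8 target thyroperoxidase promoter measured by SteadyGlo luminescence.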 In kind it is functional, cell-based.
Assay [18] in a line: blockers of HIV-1 envelope-mediated cell-cell fusion – cherry-pick, dose response (AID 652057). Type of assay: functional, cell-based.
Assay [19] is described as follows: HIV-1 AD8 envelope cell-cell fusion blockers – cherry-pick, dose response (AID 652062).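 Note: luciferase signal from cell-cell fusion driven by HIV-1 clade B AD8 Env; potency is for inhibitors of fusion seen as a drop in luminescence.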 Type of assay: functional, cell-based.
Assay [20] deals with T4, Rac GTPase-activating protein 1 (Homo sapiens, UniProt Q9H0H5).
T4 sequence (Q9H0H5 whole entry): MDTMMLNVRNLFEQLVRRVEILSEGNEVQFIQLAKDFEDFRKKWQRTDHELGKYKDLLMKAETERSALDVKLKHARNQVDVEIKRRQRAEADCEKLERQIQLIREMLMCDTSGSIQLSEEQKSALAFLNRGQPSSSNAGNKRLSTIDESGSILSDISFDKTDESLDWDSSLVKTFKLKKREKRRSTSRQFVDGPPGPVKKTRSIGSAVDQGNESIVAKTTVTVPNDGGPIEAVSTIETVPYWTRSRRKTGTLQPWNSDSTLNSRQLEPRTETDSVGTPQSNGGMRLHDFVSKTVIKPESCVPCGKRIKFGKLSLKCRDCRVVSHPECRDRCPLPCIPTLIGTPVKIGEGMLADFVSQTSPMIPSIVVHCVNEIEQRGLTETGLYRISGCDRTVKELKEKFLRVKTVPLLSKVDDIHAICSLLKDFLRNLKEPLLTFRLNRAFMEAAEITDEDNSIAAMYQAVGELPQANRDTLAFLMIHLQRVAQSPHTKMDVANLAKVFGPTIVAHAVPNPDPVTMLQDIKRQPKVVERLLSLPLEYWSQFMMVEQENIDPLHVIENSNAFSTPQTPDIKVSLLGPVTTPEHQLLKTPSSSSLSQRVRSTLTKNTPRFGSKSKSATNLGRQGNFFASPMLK
Kind of assay: blockers of MgcRacGAP-driven Rac1 GTP hydrolysis – biochemical, ADP Hunter fluorescence, primary and confirmatory, confirmation (AID 624330). In kind it is functional.

Sequence of Cytochrome P450 2C9 (P11712 whole entry): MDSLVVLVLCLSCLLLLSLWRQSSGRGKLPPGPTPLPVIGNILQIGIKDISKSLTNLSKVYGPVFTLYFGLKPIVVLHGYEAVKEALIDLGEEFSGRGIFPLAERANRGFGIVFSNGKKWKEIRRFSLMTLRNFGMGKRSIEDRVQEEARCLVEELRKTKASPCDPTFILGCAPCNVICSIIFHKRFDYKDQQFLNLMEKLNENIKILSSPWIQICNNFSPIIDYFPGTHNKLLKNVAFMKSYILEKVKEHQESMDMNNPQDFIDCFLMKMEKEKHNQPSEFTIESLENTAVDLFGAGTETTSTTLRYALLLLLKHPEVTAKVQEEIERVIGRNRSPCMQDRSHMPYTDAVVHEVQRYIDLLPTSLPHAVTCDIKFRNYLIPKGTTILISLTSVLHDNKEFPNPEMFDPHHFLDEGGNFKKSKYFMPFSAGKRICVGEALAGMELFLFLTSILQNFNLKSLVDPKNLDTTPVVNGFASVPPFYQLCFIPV
Sequence of Paired box protein Pax-8 (Q06710 whole entry, the tested form may be a part): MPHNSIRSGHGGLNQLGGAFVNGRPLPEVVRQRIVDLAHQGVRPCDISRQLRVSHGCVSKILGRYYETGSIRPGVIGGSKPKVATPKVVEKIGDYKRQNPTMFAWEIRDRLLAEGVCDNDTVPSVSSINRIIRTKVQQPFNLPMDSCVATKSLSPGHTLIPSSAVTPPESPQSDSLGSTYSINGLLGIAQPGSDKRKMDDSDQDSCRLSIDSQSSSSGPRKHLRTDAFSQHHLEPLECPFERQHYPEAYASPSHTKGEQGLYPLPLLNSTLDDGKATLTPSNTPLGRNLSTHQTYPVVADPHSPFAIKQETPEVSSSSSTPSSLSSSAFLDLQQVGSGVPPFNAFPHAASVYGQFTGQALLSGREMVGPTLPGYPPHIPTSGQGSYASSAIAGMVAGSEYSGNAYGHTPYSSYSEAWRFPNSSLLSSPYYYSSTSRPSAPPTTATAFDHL
Sequence of Estrogen receptor beta (Q92731 whole entry): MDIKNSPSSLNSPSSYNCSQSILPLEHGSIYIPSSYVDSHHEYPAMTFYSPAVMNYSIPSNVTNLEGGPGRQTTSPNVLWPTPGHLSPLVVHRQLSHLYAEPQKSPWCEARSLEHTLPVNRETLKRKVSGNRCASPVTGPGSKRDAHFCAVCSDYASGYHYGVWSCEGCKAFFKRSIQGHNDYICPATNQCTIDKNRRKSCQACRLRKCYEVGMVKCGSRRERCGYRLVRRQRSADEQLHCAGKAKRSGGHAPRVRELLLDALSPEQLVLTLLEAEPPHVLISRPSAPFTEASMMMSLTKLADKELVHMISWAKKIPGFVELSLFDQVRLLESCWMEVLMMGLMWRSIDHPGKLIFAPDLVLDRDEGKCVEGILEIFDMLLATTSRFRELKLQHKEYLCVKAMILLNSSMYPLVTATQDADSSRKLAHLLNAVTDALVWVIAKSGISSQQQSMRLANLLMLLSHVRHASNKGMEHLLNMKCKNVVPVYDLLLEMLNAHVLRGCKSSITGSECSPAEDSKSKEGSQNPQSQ

As to `Cc1[nH]c(C)c(S(=O)(=O)N2CCN(c3cccc(Cl)c3)CC2)c1C(=O)N1CCCCC1`, the IC50 in assay [1] is 31.5 µM (active). Moreover, in assay [2], the 50% cytotoxic concentration (CC50) was 29.3 µM (active).
With `C[C@@H]1CN([C@@H](C)CO)C(=O)c2cccc(NC(=O)CCCCCC(=O)Nc3ccccc3N)c2O[C@H]1CN(C)Cc1ccc2c(c1)OCO2`, the AC50 in assay [3] is 2.58 µM (active).
Take `CN1CC2(C)CN(C(c3ccccc3)c3ccccc3)CC(C)(C1)C2O` (configuration not stated): the half-maximal inhibitory concentration (IC50) in [4] is recorded as > 50 µM (not active).
Turning to `CC(C)c1ccc(S(=O)(=O)N2CCN(CC(=O)c3ccc(O)c(O)c3)CC2)cc1`, the IC50 in assay [5] was 23.6 µM (active); in assay [7], > 79 µM (inactive). The AC50 in [6] is 4.68 µM (active).
For the compound `C[C@H](CO)N1C[C@H](C)[C@H](CN(C)Cc2ccc(C(=O)Nc3ccccc3N)cc2)Oc2ccc(NC(=O)Cc3ccccc3)cc2CC1=O`, the half-maximal activity concentration (AC50) in assay [3] was 2.95 µM (active).
Consider `Cc1ccc(S(=O)(=O)Nc2cccc3c2O[C@@H](CN(C)S(=O)(=O)c2ccc(Cl)cc2)[C@@H](C)CN([C@H](C)CO)C3=O)cc1`, for which the concentration at half-maximal activity (AC50) in assay [3] was 8.14 µM (active).
Regarding `CC(=N)/C(C#N)=C(/O)COc1ncnc2ccc(Br)cc12`, the values for the AC50 in [8], in assay [9] and in assay [10] were 11.2 µM (inconclusive), 0.0316 µM (inconclusive) and 17.8 µM (inconclusive), respectively. Also, the IC50 in assay [1] is 1.14 µM (active).
With `COc1ccc(/C=C\c2nc(=O)c3ccccc3o2)cc1`, the IC50 in assay [11] was 19.9 µM (active). Moreover, the 50% cytotoxic concentration (CC50) in assay [12] was 16.6 µM (active). The 50% effective concentration (EC50) in assay [13] is 20.9 µM (active).
Turning to `COc1ccc(-c2cc3c(=O)n(CC(=O)NCCCN4CCN(Cc5ccccc5)CC4)ncn3n2)cc1`, the AC50 in assay [14] is 2.22 µM (active).
On to `CC(C)(O)/C=C/C(=O)C(C)(O)C1C(O)CC2(C)C3CC=C4C(C=C(O)C(=O)C4(C)C)C3(C)C(=O)CC12C` (configuration not stated), for which, in assay [11], the half-maximal inhibitory concentration (IC50) is > 25 µM (active). Moreover, in [12], the CC50 was 0.08 µM (active). The concentration at half-maximal activity (AC50) was 1.83 µM (active) in assay [15], 4.47 µM (active) in assay [16] and < 0.26 µM (active) in assay [17].
In the case of `O=C(C[C@@H]1CC[C@H]2[C@@H](COC[C@@H](O)CN2C(=O)c2ccc(F)cc2)O1)NC1Cc2ccccc2C1`, the AC50 in assay [18] is 1.62 µM (active); in assay [19], 3.86 µM (active).
Regarding `Cc1ccc(S(=O)(=O)N(C)c2ccc(C(=O)N3CCN(Cc4ccc5c(c4)OCO5)CC3)cc2)cc1`, the concentration at half-maximal activity (AC50) in assay [19] is 14 µM (active).
As to `CN(C)c1ccc2cc(S(=O)(=O)O)cc(O)c2c1`, in assay [20], the IC50 is 42.9 µM (active). In addition, the AC50 in assay [6] was 0.747 µM (active).
On to `COc1ccccc1Nc1nc(-c2cccc([N+](=O)[O-])c2)cs1`, for which the IC50 in assay [1] is 12.3 µM (active). Besides, the CC50 in assay [2] is 25.1 µM (active).
Take `CCN(CC)CCCN(Cc1cc2cc(OC)c(OC)cc2nc1O)C(=O)Nc1ccccc1`: in assay [6], the AC50 is > 20 µM (inactive).
As to `C[C@@H]1CN([C@@H](C)CO)C(=O)c2cccc(NC(=O)Nc3ccc(C(F)(F)F)cc3)c2O[C@@H]1CN(C)S(=O)(=O)c1ccc(F)cc1`, the AC50 in assay [3] was 4.16 µM (active).
Regarding `C[C@H](CO)N1C[C@H](C)[C@@H](CN(C)Cc2ccncc2)Oc2c(NC(=O)C3CCOCC3)cccc2C1=O`, the AC50 in assay [3] was 20 µM (inactive).
